Reference: patent US5057513A, “Spiro-thiazepine derivatives useful as PAF antagonists” (Fujisawa Pharmaceutical Co., Ltd., priority 1989, dated 1991)
Values after ≈ are worked out from the molar mass of the structure shown. Where two headings read alike, the source gives them in different places.

Experiments:
PAF-induced lethality = assay: Effect of the test compound on the PAF-induced lethality in rats; format: in vivo, male Wistar rats; conditions: Rattus norvegicus, survival for 24 hours
Experimental: Conscious male Wistar rats, 150-200 g body weight, 7 weeks old, were used in the experiment on PAF-induced lethality. The animals were fasted before the experiment. Test compound was given orally 60 minutes before (or intravenously simultaneously with) intravenous PAF injection (10 μg/kg) into a tail vein. Survival of the animals was recorded for 24 hours after intravenous PAF injection.

[1] = tested on: endotoxin-induced disseminated intravascular coagulation (serum FDP); assay: Effect of the test compound on the endotoxin-induced disseminated intravascular coagulation; format: in vivo, male Wister rats; conditions: Rattus norvegicus, rats
Experimental: Conscious male Wister rats, 150-200 g body weight, 7 weeks old, were used in the experiment on endotoxin-induced disseminated intravascular coagulation (DIC). The animals were fasted before the experiment. A 10 mg/kg dose of endotoxin (E. coli) dissolved in saline was given as an injection via tail vein. Test compound was given orally 60 minutes before and 6 hours after endotoxin. The intravenous administration of the test compound into a tail vein was simultaneous with intravenous injection of endotoxin.
Arterial blood samples were taken 4 hours (Test compound; intravenously) and 24 hours (Test compound; orally) after endotoxin for measurements of serum FDP (fibrin degradation products), respectively. FDP was determined by the latex aggregation test.

[2] = tested on: PAF-induced bronchoconstriction; assay: Effect of the test compound on PAF-induced bronchoconstriction in the guinea-pig; format: in vivo, Male Hartley guinea-pigs; conditions: Cavia porcellus, po, orally 30 minutes before PAF (0.64 μg/ml, 1 ml/kg), read-out: ED50 (effective dose of the test compound to inhibit the PAF-induced bronchoconstriction by 50%)
Experimental: Male Hartley guinea-pigs (400-500 g) were anesthetized with sodium pentobarbital (25 mg/kg, intraperitoneally). The right jugular vein was catheterized for injection of PAF (0.64 μg/ml, 1 ml/kg), and the animals were tracheotomized and ventilated with a respiratory pump (Harvard B-34, 5 ml/stroke, 60 strocks/minutes).
The test compound was administered orally 30 minutes before challenge with PAF.
(ED50 : effective dose of the test compound to inhibit the PAF-induced bronchoconstriction by 50%).

[3] = tested on: PAF-induced vascular permeability increase; assay: Inhibition of PAF-induced vascular permeability increase; format: in vivo, 6-week-old male ddY mice; conditions: Mus musculus, ip; mice; intraperitoneally, 5 minutes before Evan's blue; PAF 50 ng intradermally; read-out: ED50 (effective dose required to inhibit PAF-induced vascular permeability increase by 50%)
Experimental: PAF (50 ng) was injected intradermally to the depilated back of 6-week-old male ddY mice. Evan's blue (1 mg) was injected intravenously 5 minutes before the PAF injection, and the test compound was administered intraperitoneally 5 minutes before the Evan's blue injection. Thirty minutes later, the animals were killed and the area of dye leakage was measured.
The inhibition was expressed as ED50 value, i.e. effective dose (mg/kg) required to inhibit PAF-induced vascular permeability increase by 50%.

[4] = tested on: platelet aggregation induced with PAF; assay: Test 1 (Inhibition of platelet aggregation); format: cell-based, male Japanese white rabbit; conditions: Oryctolagus cuniculus; rabbit platelet rich plasma; final concentration of PAF usually 32 nM; read-out: IC50 (concentration required to inhibit the platelet aggregation response by 50%)
Experimental: Blood was collected through the polyethylene catheter introduced into the carotid artery of male Japanese white rabbit (2.5 to 3 kg body weight). The blood was anticoagulated with 1 volume of 3.8% sodium citrate to 9 volume of blood. Platelet rich plasma (PRP) was prepared by centrifugation of the blood at 150 g for 10 minutes at room temperature. The PRP was diluted with platelet poor plasma obtained by further centrifugation of the blood at 1,000 g for 20 minutes. The platelet number was 5×10^5 cells/mm^3. Platelet aggregation induced with PAF [1-O-hexadecyl-2-O-acetyl-sn-glycero-3-phosphorylcholine] was measured by the nephelometric technique of Born and Cross [cf. Journal of Physiology 168, 178-188 (1963)] using HKK Hema tracer (trade name, made by Niko Bioscience Inc.).
Activity of inhibitor was expressed as IC50 value, i.e. concentration required to inhibit the platelet aggregation response by 50%. The final concentration of PAF was usually 32 nM.

O=C1C[C@]2(CCCC[C@H]2Cc2ccccc2)S(=O)(=O)CCN1Cc1cccnc1 [(1S,6S)-1-Phenylmethyl-10-(3-pyridylmethyl)-11-oxo-7-thia-10-azaspiro[5.6]dodecane 7,7-dioxide]
ED50 (PAF-induced lethality; intravenous, simultaneously with PAF 10 μg/kg i.v., read-out: ED50 (mg/kg), PAF-induced lethality, intravenous): 1 mg/kg | ED50 (PAF-induced lethality; oral, 60 minutes before PAF 10 μg/kg i.v., read-out: ED50 (mg/kg), PAF-induced lethality, oral): 2 mg/kg | ED50 ([1]; intravenous, simultaneous with endotoxin 10 mg/kg, serum FDP at 4 hours, read-out: ED50 (mg/kg), endotoxin-induced DIC, intravenous): 2.4 mg/kg | ED50 ([1]; oral, 60 minutes before and 6 hours after endotoxin 10 mg/kg, serum FDP at 24 hours, read-out: ED50 (mg/kg), endotoxin-induced DIC, oral): 6.8 mg/kg | ED50 [2]: 3.7 mg/kg

O=C1CC2(CCCCC2Cc2cccc(Cl)c2)S(=O)(=O)CCN1Cc1cccnc1 (stereo not shown) [1-(3-Chlorophenylmethyl)-10-(3-pyridylmethyl)-11-oxo-7-thia-10-azaspiro[5.6]dodecane 7,7-dioxide]
ED50 [3]: 2.9 mg/kg

CN(C)CCN1C(=O)CC2(CCCCC2Cc2ccccc2Cl)[S+]([O-])c2ccccc21 (stereo not shown) [2'-(2-Chlorophenylmethyl)-4,5-dihydro-4-oxo-5-{2-(N,N-dimethylamino)ethyl}spiro[1,5-benzothiazepine-2(3H), 1'-cyclohexane] 1-oxide]
IC50 [4]: 0.17 µg/mL (≈ 0.37 µM)
